According to patent US6376508B1, “Treatments for spinal muscular atrophy” (priority 2000, dated 2002):
“Also recorded” adds a separate entry of the source.

How the values were obtained:
exon 7 of the SMN2 gene = assay: RT-PCR analysis of SMN exon 7 expression in EBV transformed lymphoid cell lines of SMA patients; type: cell-based, human
[1] = system: exon 7-containing SMN protein; assay: Western-blot analysis (H2 and H7 antibodies) of SMN protein in SMA patient lymphoid cell lines; type: cell-based, human; settings: cytosolic and nuclear fractions, 4 hours stimulation, 0.5 ng/ml to 5 μg/ml
Method: Lymphoid cells were isolated from SMA patients with different degrees of severity. Whole blood was drawn from the patients, heparinized, then diluted 1:1 with PBS (phosphate buffered saline). The diluted sample was layered on a Ficoll-Hypaque gradient, and centrifuge at 2500 rpm for 30 minutes at room temperature. The buffy coat was collected from the centrifuged sample, washed twice with 5 ml PBS, collected, and resuspended in 5 ml RPMI medium, 0.5 ml Epstein-Barr virus (EBV stock), 50 μl PHA, and 50 μl of cyclosporine (0.2 mg/ml). The virus-treated sample was mixed well and transferred into a T-flask for incubation at 37° C. in a 5% CO2 incubator for 3 weeks.
Rabbits were immunized with synthetic peptides containing either human SMN amino acids 279-288 from exon 7 or amino acids 72-84 from exon 2. Specific antibodies (H7 and H2 batches) were purified from rabbit crude sera with an EAH-sepharose 4B column (Pharmacia) according to the manufacturer's instructions.
Protein samples, prepared from treated and untreated SMA lymphoid cells, were loaded on a 5% polyacrylamide stacking gel above a 12% separating gel, and the gel was run with a discontinuous buffer using Laemmli's method. […] The secondary antibody was detected with a 1.5% solution of 5-bromo-4-chloro-3-indoyl phosphate and 3% nitro blue tetrazolium in a developing buffer (100 mM NaCl, 5 mM MgCl2, 100 mM Tris.HCl, pH 9.5). […]

[2] = system: SMA-like mice (hSMN2 Smn-/-); assay: Treatment of types 2 and 3 SMA-like mice via drinking water; type: in vivo, mouse
Description: To generate hSMN2 Smn^−/− mice, hSMN2 Smn^+/− mice were crossed to Smn^+/− mice. Progeny lacking the murine SMN locus were identified by genotyping. The presence of the hSMN2 transgene was also confirmed.
These mice frequently developed chronic necrosis of the tail tip, muscular atrophy, subcutaneous edema in hindlimbs, and paralysis of hindlimbs. Type 3 mice survived and bred normally. The mild symptoms of these mice include short but enlarged tails.
The effect of sodium butyrate on the symptoms of SMA-like mice were investigated. Sodium butyrate was administered to ten SMA-like mice with type 2 symptoms and ten SMA-like mice with type 3 symptoms. These mice were identified at birth by genotype and phenotype. Thereafter, their drinking water was supplemented with a 0.8 μg/ml or an 8 μg/ml solution of sodium butyrate. The drinking water was available ad libitum. The amount of sodium butyrate taken by SMA-like mice was estimated to be approximate 4-80 μg/day. The survival time of sodium butyrate-treated type 2 SMA-like mice was longer, about 4 to 5 days longer on average, than untreated mice.
The effect of sodium butyrate administration on the tail phenotype of SMA-like mice was also monitored. The tails of untreated types 2 and 3 SMA-like mice have decreased diameter of muscle fibers, atrophy of muscle bundles, group atrophy and subcutaneous edema (Hsieh-Li et al. (2000) supra). […] The tail of a treated mouse was about 5 cm long on average, whereas the tail of an untreated mouse was about 1 cm long. Remarkably, the average length of the tail of treated mice, 5 cm, is close to the average length for wild-type mice, 6 cm.

[3] = system: SMA-like mice (progeny of hSMN2 Smn+/- intercross); assay: In utero treatment of SMA-like mice (pregnant mice from hSMN2 Smn+/- intercross); type: in vivo, mouse
Method: To evaluate the therapeutic effect of sodium butyrate for severely affected SMA mice, the test compound was administered to pregnant mice from an hSMN2 Smn^+/− intercross. The number mice born with SMA-like phenotypes were counted and classified according to type. In one case, 4-8 μg/day sodium butyrate was administered to pregnant mice from a hSMN2 Smn^+/− intercross ad libitum in their drinking water beginning from 15 day post-coitum until parturition (Table 1).

[4] = treated mothers, 4-8 μg/day from 15 day post-coitum until parturition (untreated 10%)
[5] = treated mothers, 4-8 μg/day from 15 day post-coitum until parturition, 294 total pups

## CCCC(=O)[O-].[Na+] [sodium butyrate]
Exon 7 of the SMN2 gene; RT-PCR, treated vs untreated cells
  splicing of SMN2 transcripts: changed to include exon 7
Exon 7 of the SMN2 gene; lymphoid cells cultured with 5 ng/ml to 50 μg/ml
  amount of exon 7-containing SMN mRNA: increased
Exon 7 of the SMN2 gene; lymphoid cells, 5 ng/ml to 50 μg/ml
  time of greatest increase of exon 7-containing SMN mRNA after addition of the drug: 4 h
Exon 7 of the SMN2 gene; relative to untreated control, lymphoid cells from all three types of SMA patients
  level of full-length SMN mRNA transcript: increased levels of full-length SMN transcript; also recorded: increase
[1]
  amount of intact (exon 7-containing) SMN protein: increase
[2]; treated SMA-like mice
  tail histopathology relative to untreated SMA-like mice: fewer atrophied muscle bundles, less group atrophy, and reduced subcutaneous edema
[2]; treated SMA-like mice (untreated 50%)
  frequency of chronic necrosis originating at the tip of the tail: 2%
[2]; treated type 3 SMA-like mice (untreated about 1 cm, wild-type 6 cm)
  tail length on average: about 5 cm
[2]; type 2 SMA-like mice, drinking water 0.8 or 8 μg/ml, approx. 4-80 μg/day
  survival time longer than untreated mice, on average: 4 to 5 days
[2]; type 3 SMA-like mice
  tail phenotype: close to wild-type
[2]; western blot and immunohistochemistry, multiple tissues including spinal cord motor neurons
  exon 7-containing SMN protein levels in tissues: elevated
[3]; higher dose, 40-80 μg/day
  symptoms of progeny from treated mothers vs progeny from untreated mothers: milder symptoms
[3]; treated mothers, 4-8 μg/day from 15 day post-coitum until parturition (untreated 5%)
  percent of pups with Type 2 symptoms: 7%
[3]; [4]
  percent of pups with Type 1 symptoms: 7%
  percent of pups with Type 3 symptoms: 16%
[3]; [5]
  number of pups with Type 2 symptoms: 22
  number of pups with Type 3 symptoms: 48
[3]; treated mothers, 4-8 μg/day in drinking water from 15 day post-coitum until parturition, 294 total pups
  number of pups with Type 1 symptoms: 21
